Measurements taken from ChEMBL document CHEMBL3885881, “DrugMatrix”.

Species on record: Rattus norvegicus
Type: toxicity, organism-based, Sprague-Dawley
Conditions: in vivo, ip, 24 h, route intraperitoneal, time 1 day, […]; for ABSOLUTE EOSINOPHIL / ABSOLUTE LYMPHOCYTE / ABSOLUTE MONOCYTE / ABSOLUTE SEGMENTED NEUTROPHIL / BASOPHIL / EOSINOPHIL / ERYTHROCYTE COUNT / HEMATOCRIT / HEMOGLOBIN / LEUKOCYTE COUNT / LYMPHOCYTE / MEAN CORPUSCULAR HEMOGLOBIN / MEAN CORPUSCULAR HEMOGLOBIN CONCENTRATION / MEAN CORPUSCULAR VOLUME / MONOCYTE / NEUTROPHIL / NUCLEATED RED BLOOD CELLS / PLATELET COUNT: tissue Blood; for ALANINE AMINOTRANSFERASE / ALBUMIN / ALKALINE PHOSPHATASE / ASPARTATE AMINOTRANSFERASE / BLOOD UREA NITROGEN / CARBON DIOXIDE / CHLORIDE / CHOLESTEROL / CREATININE / GLUCOSE / LACTATE DEHYDROGENASE / LIPASE / PHOSPHORUS / POTASSIUM / SODIUM / TOTAL BILIRUBIN / TOTAL PROTEIN / URIC ACID: tissue Plasma
[1] = 0 mg/kg, vehicle control, dose level Control

Description: DrugMatrix - Regimen: Single

ClC(Cl)=C(Cl)C(Cl)=C(Cl)Cl [HEXACHLOROBUTADIENE]
ABSOLUTE EOSINOPHIL [1]: 212 CELLS/uL
ABSOLUTE LYMPHOCYTE [1]: 10220.17 CELLS/uL
ABSOLUTE MONOCYTE [1]: 368.83 CELLS/uL
ABSOLUTE SEGMENTED NEUTROPHIL [1]: 1749 CELLS/uL
BASOPHIL [1]: 0%
EOSINOPHIL [1]: 1.67%
ERYTHROCYTE COUNT [1]: 5.74 x10E6/uL
HEMATOCRIT [1]: 35.72%
HEMOGLOBIN [1]: 13 G/DL
LEUKOCYTE COUNT [1]: 12.55 x10E3/uL
LYMPHOCYTE [1]: 81.83%
MEAN CORPUSCULAR HEMOGLOBIN [1]: 22.65 pg
MEAN CORPUSCULAR HEMOGLOBIN CONCENTRATION [1]: 36.42 G/DL
MEAN CORPUSCULAR VOLUME [1]: 62.18 fL
MONOCYTE [1]: 2.83%
NEUTROPHIL [1]: 13.67%
NUCLEATED RED BLOOD CELLS [1]: 0 /100WBC
PLATELET COUNT [1]: 841.83 x10E3/uL
ALANINE AMINOTRANSFERASE [1]: 54 u/L
ALBUMIN [1]: 4.15 G/DL
ALKALINE PHOSPHATASE [1]: 357.33 u/L
ASPARTATE AMINOTRANSFERASE [1]: 116 u/L
BLOOD UREA NITROGEN [1]: 14.17 mg/dL
CARBON DIOXIDE [1]: 34.5 mmol/L
CHLORIDE [1]: 99.17 MEQ/L
CHOLESTEROL [1]: 79.17 mg/dL
CREATININE [1]: 0.2 mg/dL
GLUCOSE [1]: 143.33 mg/dL
LACTATE DEHYDROGENASE [1]: 187.17 u/L
LIPASE [1]: 8.83 u/L
PHOSPHORUS [1]: 11.4 mg/dL
POTASSIUM [1]: 6.36 MEQ/L
SODIUM [1]: 143.32 MEQ/L
TOTAL BILIRUBIN [1]: 0.23 mg/dL
TOTAL PROTEIN [1]: 6.22 G/DL
URIC ACID [1]: 1.25 mg/dL
ABSOLUTE EOSINOPHIL (50 mg/kg, dose level High): 167 CELLS/uL
ABSOLUTE LYMPHOCYTE (50 mg/kg, dose level High): 9489 CELLS/uL
ABSOLUTE MONOCYTE (50 mg/kg, dose level High): 340.67 CELLS/uL
ABSOLUTE SEGMENTED NEUTROPHIL (50 mg/kg, dose level High): 2070 CELLS/uL
BASOPHIL (50 mg/kg, dose level High): 0%
EOSINOPHIL (50 mg/kg, dose level High): 1.33%
ERYTHROCYTE COUNT (50 mg/kg, dose level High): 5.16 x10E6/uL
HEMATOCRIT (50 mg/kg, dose level High): 31.83%
HEMOGLOBIN (50 mg/kg, dose level High): 11.8 G/DL
LEUKOCYTE COUNT (50 mg/kg, dose level High): 12.07 x10E3/uL
LYMPHOCYTE (50 mg/kg, dose level High): 79.33%
MEAN CORPUSCULAR HEMOGLOBIN (50 mg/kg, dose level High): 22.87 pg
MEAN CORPUSCULAR HEMOGLOBIN CONCENTRATION (50 mg/kg, dose level High): 37.07 G/DL
MEAN CORPUSCULAR VOLUME (50 mg/kg, dose level High): 61.67 fL
MONOCYTE (50 mg/kg, dose level High): 2.67%
NEUTROPHIL (50 mg/kg, dose level High): 16.67%
NUCLEATED RED BLOOD CELLS (50 mg/kg, dose level High): 0 /100WBC
PLATELET COUNT (50 mg/kg, dose level High): 549 x10E3/uL
ALANINE AMINOTRANSFERASE (50 mg/kg, dose level High): 65.67 u/L
ALBUMIN (50 mg/kg, dose level High): 4.2 G/DL
ALKALINE PHOSPHATASE (50 mg/kg, dose level High): 368.67 u/L
ASPARTATE AMINOTRANSFERASE (50 mg/kg, dose level High): 251.67 u/L
BLOOD UREA NITROGEN (50 mg/kg, dose level High): 15.33 mg/dL
CARBON DIOXIDE (50 mg/kg, dose level High): 30.33 mmol/L
CHLORIDE (50 mg/kg, dose level High): 100.67 MEQ/L
CHOLESTEROL (50 mg/kg, dose level High): 75.67 mg/dL
CREATININE (50 mg/kg, dose level High): 0.22 mg/dL
GLUCOSE (50 mg/kg, dose level High): 192.33 mg/dL
LACTATE DEHYDROGENASE (50 mg/kg, dose level High): 377.67 u/L
LIPASE (50 mg/kg, dose level High): 9 u/L
PHOSPHORUS (50 mg/kg, dose level High): 12.03 mg/dL
POTASSIUM (50 mg/kg, dose level High): 5.96 MEQ/L
SODIUM (50 mg/kg, dose level High): 144.97 MEQ/L
TOTAL BILIRUBIN (50 mg/kg, dose level High): 0.23 mg/dL
TOTAL PROTEIN (50 mg/kg, dose level High): 6.1 G/DL
URIC ACID (50 mg/kg, dose level High): 1.2 mg/dL
